This passage reports IC50 and inhibition results from ChEMBL document CHEMBL3286106, “Design and synthesis of 6-oxo-1,4,5,6-tetrahydropyrimidine-5-carboxylate derivatives as neuraminidase inhibitors” (Eur J Med Chem, 2014).

The target of one assay is Neuraminidase (Influenza A virus, UniProt B4URF0). Briefly: Inhibition of Influenza A H1N1 virus neuraminidase after 1 hr by spectrofluorimetry using 2-(4-meythylumbelliferyl)-alpha-D-acetylneuramic acid as substrate.
The target of assay [1] is Neuraminidase (Influenza A virus) (UniProt B4URF0). Briefly: Inhibition of Influenza A H1N1 virus neuraminidase at 40 uM after 1 hr by spectrofluorimetry using 2-(4-meythylumbelliferyl)-alpha-D-acetylneuramic acid as substrate.
For assay [2] the target is unchanged. Briefly: Inhibition of Influenza A H1N1 virus neuraminidase at 8 uM after 1 hr by spectrofluorimetry using 2-(4-meythylumbelliferyl)-alpha-D-acetylneuramic acid as substrate.
Assay [3] has the same target. Briefly: Inhibition of Influenza A H1N1 virus neuraminidase at 200 uM after 1 hr by spectrofluorimetry using 2-(4-meythylumbelliferyl)-alpha-D-acetylneuramic acid as substrate.
Assay [4] shares this target. Briefly: Inhibition of Influenza A H1N1 virus neuraminidase at 1.6 uM after 1 hr by spectrofluorimetry using 2-(4-meythylumbelliferyl)-alpha-D-acetylneuramic acid as substrate.
Assay [5] can be described thus: Cytotoxicity against human L02 cells after 48 hrs by MTT assay. Type of assay: cell-based. The note with it: L02, 48 h. Background: Tetrazolium dyes change colour on reduction, which living cells bring about.
Assay [6] has as its target Neuraminidase (Influenza A virus) (UniProt B4URF0). Briefly: Inhibition of Influenza A H1N1 virus neuraminidase at 0.16 nM after 1 hr by spectrofluorimetry using 2-(4-meythylumbelliferyl)-alpha-D-acetylneuramic acid as substrate.
The target is the same in assay [7]. In words: Inhibition of Influenza A H1N1 virus neuraminidase at 4 nM after 1 hr by spectrofluorimetry using 2-(4-meythylumbelliferyl)-alpha-D-acetylneuramic acid as substrate.
Assay [8] has the same target. In words: Inhibition of Influenza A H1N1 virus neuraminidase at 20 nM after 1 hr by spectrofluorimetry using 2-(4-meythylumbelliferyl)-alpha-D-acetylneuramic acid as substrate.
For assay [9] the target is unchanged. In words: Inhibition of Influenza A H1N1 virus neuraminidase at 100 nM after 1 hr by spectrofluorimetry using 2-(4-meythylumbelliferyl)-alpha-D-acetylneuramic acid as substrate.
The target is the same in assay [10]. Briefly: Inhibition of Influenza A H1N1 virus neuraminidase at 0.8 nM after 1 hr by spectrofluorimetry using 2-(4-meythylumbelliferyl)-alpha-D-acetylneuramic acid as substrate.

Where only a bound is given, the exact number is not on record here.

By IC50 is commonly meant the concentration needed to halve the response being measured. Read a high IC50 as a need for much substance. A word on the inhibition: it is how much of the control response was suppressed. A low value points to a response near the control.

Chain of Neuraminidase (B4URF0 whole entry): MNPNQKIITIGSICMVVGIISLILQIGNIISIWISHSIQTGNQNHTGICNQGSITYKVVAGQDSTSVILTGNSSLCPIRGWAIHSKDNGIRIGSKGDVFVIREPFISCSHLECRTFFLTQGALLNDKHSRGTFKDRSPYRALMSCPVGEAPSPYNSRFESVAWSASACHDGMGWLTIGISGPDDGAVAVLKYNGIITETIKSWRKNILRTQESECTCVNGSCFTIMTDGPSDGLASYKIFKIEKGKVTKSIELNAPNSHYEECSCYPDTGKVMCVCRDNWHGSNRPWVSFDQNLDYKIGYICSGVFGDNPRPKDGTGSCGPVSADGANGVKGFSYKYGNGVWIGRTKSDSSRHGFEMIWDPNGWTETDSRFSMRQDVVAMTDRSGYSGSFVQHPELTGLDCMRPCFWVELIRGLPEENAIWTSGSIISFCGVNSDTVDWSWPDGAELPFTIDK
Chain of Neuraminidase (Influenza A virus) (B4URF0 as listed by the source): as the sequence (B4URF0 whole entry) above

`CCOC(=O)C1C(=O)NC(N)=NC1c1ccc([N+](=O)[O-])cc1` (centres undefined): the IC50 against Neuraminidase came out at 189 µM. Same read-out and setting: the value for `CCOC(=O)C1C(=O)NC(N)=NC1c1ccccc1F` (centres undefined) was 89 µM; that for `CCOC(=O)C1C(=O)NC(NC(C)=O)=NC1c1ccccc1F` (centres undefined) was 46.5 µM. For the compound `CCOC(=O)C1C(=O)NC(NC(C)=O)=NC1c1ccc(Cl)cc1` (centres undefined), the IC50 at Neuraminidase turned out to be 89.6 µM. On the same count and under the same terms, the value for `CCOC(=O)C1C(=O)NC(N)=NC1c1ccc(Cl)cc1` (centres undefined) was 110 µM. The same measure, in the same setting: the result for `CCOC(=O)C1C(=O)NC(N)=NC1c1ccc(Cl)cc1Cl` (centres undefined) reads 120 µM; that for `CCOC(=O)C1C(=O)NC(NC(C)=O)=NC1c1ccc([N+](=O)[O-])cc1` (centres undefined), 145 µM. On the same count and under the same terms, the result for `CCOC(=O)C1C(=O)NC(NC(C)=O)=NC1c1ccccc1Cl` (centres undefined) reads 36.7 µM; that for `CCOC(=O)C1C(=O)NC(NC(C)=O)=NC1c1ccccc1` (centres undefined), 57.5 µM. `CCOC(=O)C1C(=O)NC(NC(C)=O)=NC1c1ccc(Br)cc1F` (centres undefined): the inhibition worked out at 52% in assay [1], 24% in assay [2], 86% in assay [3] and 7% in [4]. The half-inhibitory concentration (IC50) on Neuraminidase was 29.7 µM; in assay [5] it was above 10000 µM. At Neuraminidase, `CCOC(=O)C1C(=O)NC(NC(C)=O)=NC1c1ccc(OC)c(OC)c1` (centres undefined) returned an IC50 above 200 µM.

For the compound `CCOC(=O)C1C(=O)NC(NC(=O)C(F)(F)F)=NC1c1ccc(Br)cc1` (centres undefined), on Neuraminidase, the IC50 is 69.8 µM. The same measure, in the same setting: the value for `CCOC(=O)C1C(=O)NC(N)=NC1c1ccc(F)cc1` (centres undefined) was 145 µM. Still for that read-out and setting: the result for `CCOC(=O)C1C(=O)NC(N)=NC1c1ccc(C)cc1` (centres undefined) reads above 200 µM; that for `CCOC(=O)C1C(=O)NC(N)=NC1c1ccc(Br)cc1F` (centres undefined), 121 µM. Regarding `CCOC(=O)C1C(=O)NC(N)=NC1c1ccccc1Cl` (centres undefined), half-maximal inhibition on Neuraminidase (IC50) required 86.9 µM. Compound `CCOC(=O)C1C(=O)NC(NC(C)=O)=NC1C(C)C` (centres undefined) gave an IC50 on Neuraminidase above 200 µM. The same measure, in the same setting: the result for `CCOC(=O)C1C(=O)NC(N)=NC1c1ccccc1` (centres undefined) reads 129 µM. On to `CCOC(=O)C1=C[C@@H](OC(CC)CC)[C@H](NC(C)=O)[C@@H](N)C1`, for which the inhibition in assay [6] was determined as 17%; in assay [7], 84%; in assay [8], 97%; in [9] it was 99%; in assay [10], 51%.

On Neuraminidase, `CCOC(=O)C1C(=O)NC(N)=NC1C(C)C` (centres undefined) gave an IC50 above 200 µM. On to `CCOC(=O)C1C(=O)NC(N)=NC1c1ccco1` (centres undefined), for which the IC50 against Neuraminidase was above 200 µM.

The compound `CCOC(=O)C1C(=O)NC(NC(C)=O)=NC1c1ccc(N(C)C)cc1` (centres undefined) gave an IC50 against Neuraminidase of 139 µM. The same measure, in the same setting: the value for `CCOC(=O)C1C(=O)NC(NC(C)=O)=NC1c1ccc(Br)cc1` (centres undefined) was 71.3 µM; that for `CCOC(=O)C1C(=O)NC(NC(C)=O)=NC1c1ccc(F)cc1` (centres undefined) was 96.5 µM; that for `CCOC(=O)C1C(=O)NC(NC(C)=O)=NC1c1ccc(C)cc1` (centres undefined) was 165 µM. The same measure, in the same setting: the value for `CCOC(=O)C1C(=O)NC(NC(C)=O)=NC1c1ccc(OC)cc1` (centres undefined) was 166 µM. On to `CCOC(=O)C1C(=O)NC(NC(C)=O)=NC1c1ccc(Cl)cc1Cl` (centres undefined), for which the inhibition in [1] worked out at 61%; in [2] it was 38%; in assay [3], 94%; in assay [4] it was 8%. Also, the results for the IC50 (against Neuraminidase; in [5]) were 28.5 µM and above 10000 µM, respectively. On to `CCOC(=O)C1C(=O)NC(N)=NC1c1ccc(OC)cc1` (centres undefined), for which the IC50 against Neuraminidase was above 200 µM. The same measure, in the same setting: the value for `CCOC(=O)C1C(=O)NC(NC(=O)CC)=NC1c1ccc(Br)cc1` (centres undefined) was 106 µM; that for `CCOC(=O)C1C(=O)NC(N)=NC1c1ccccc1[N+](=O)[O-]` (centres undefined) was 75.7 µM.

On Neuraminidase, `CCOC(=O)C1C(=O)NC(NC(C)=O)=NC1c1ccco1` (centres undefined) had an IC50 above 200 µM. Same read-out and setting: the result for `CCOC(=O)C1C(=O)NC(N)=NC1c1ccc(OC)c(OC)c1` (centres undefined) reads above 200 µM. For the compound `CCOC(=O)C1C(=O)NC(NC(C)=O)=NC1c1ccccc1[N+](=O)[O-]` (centres undefined), the inhibition in assay [1] is 53%; in assay [2], 25%; in [3] it was 82%; in assay [4] it was 8%. In addition, the IC50 is 17.6 µM against Neuraminidase and above 10000 µM in assay [5].

As for `CCOC(=O)C1C(=O)NC(N)=NC1c1ccc(N(C)C)cc1` (centres undefined), the IC50 on Neuraminidase was above 200 µM. Still for that read-out and setting: the value for `CCOC(=O)C1C(=O)NC(N)=NC1c1ccc(Br)cc1` (centres undefined) was 125 µM.
